1 compound from BindingDB's records for doi:10.1021/jm401292m (Mcgill University, 2014) can be followed below.

The test in a line: Antagonist activity at OXE receptor (unknown origin) expressed in neutrophils assessed as inhibition of 5-oxo-ETE-induced cell migration after 2 hrs by hematoxylin/chromotrope 2R staining-based microscopic analysis.

For the compound `CCCCCCc1c(C(=O)CC(C)CC(=O)O)c2cc(Cl)ccc2n1C` (stereo unspecified), the IC50 came to 454 nM.
